Measurements: patent publication US20260262643A1, “HERBICIDAL BENZOXAZINES” (FMC CORPORATION, priority 2022, published 2026)
Read-outs that look alike come from different tables or passages of the source.

Legend:
[1] = system: galium; assay: Test A postemergence; type: in vivo, Galium aparine; settings: Galium, post-emergence, 240 h, postemergence, 10 days, 0 to 100 scale (0 no effect, 100 complete control); for pest or weed control at 125 g/ha: 125 g ai/ha; for pest or weed control at 500 g/ha: 500 g ai/ha
In short: (§1)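 Visual injury ratings on a 0–100 scale (100 = complete control) versus untreated controls, taken 10 days after treatment in greenhouse. Preemergence: directed soil spray onto seeded loam/sand. Postemergence: foliar application at one- to two-leaf stage, plants 2–10 cm. Formulation: non-phytotoxic solvent plus surfactant.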

[2] = system: goosegrass; assay: Test A preemergence; type: in vivo, Eleusine indica; settings: Eleusine indica, pre-emergence, 240 h, read-out: Plant response rating, Goosegrass; for pest or weed control at 125 g/ha: 125 g ai/ha, visual injury after 10 days, 0 to 100 scale, 0 is no effect, 100 is complete control; for pest or weed control at 500 g/ha: 500 g ai/ha, 0 to 100 scale (0 no effect, 100 complete control), 10 days
In short: as §1

[3] = system: ryegrass, Italian; assay: Test A postemergence; type: in vivo, Lolium multiflorum; settings: Lolium multiflorum, post-emergence, 240 h, postemergence, 10 days, 0 to 100 scale (0 no effect, 100 complete control); for pest or weed control at 125 g/ha: 125 g ai/ha, read-out: Ryegrass, Italian plant response rating; for pest or weed control at 500 g/ha: 500 g ai/ha, visual injury, read-out: Plant response rating, Ryegrass, Italian
In short: as §1

[4] = system: ryegrass, Italian; assay: Test A preemergence; type: in vivo, Lolium multiflorum; settings: Lolium multiflorum, pre-emergence, 240 h, read-out: Plant response rating, Ryegrass, Italian; for pest or weed control at 125 g/ha: 125 g ai/ha, visual injury after 10 days, 0 to 100 scale, 0 is no effect, 100 is complete control; for pest or weed control at 500 g/ha: 500 g ai/ha, 0 to 100 scale (0 no effect, 100 complete control), 10 days
In short: as §1

[5] = system: goosegrass; assay: Test A postemergence; type: in vivo, Eleusine indica; settings: Eleusine indica, post-emergence, 240 h, postemergence, 10 days, 0 to 100 scale (0 no effect, 100 complete control); for pest or weed control at 125 g/ha: 125 g ai/ha; for pest or weed control at 500 g/ha: 500 g ai/ha
In short: as §1

[6] = system: foxtail, giant; assay: Test A postemergence; type: in vivo, Setaria faberi; settings: Setaria faberi, post-emergence, 240 h, postemergence, 10 days, 0 to 100 scale (0 no effect, 100 complete control); for pest or weed control at 125 g/ha: 125 g ai/ha; for pest or weed control at 500 g/ha: 500 g ai/ha
In short: as §1

[7] = system: sedge, umbrella; assay: Test B flooded paddy test; type: in vivo, Cyperus difformis; settings: Cyperus difformis, 312 h; 250 g ai/ha, Flood, 13 days, 0 to 100 scale (0 no effect, 100 complete control); read-out: Plant response rating, Sedge, Umbrella
In short: (§2)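 Each species was raised to the 2-leaf stage. At treatment, each pot received floodwater 3 cm deep, with the chemical delivered into the water. Greenhouse holding followed for 13 days, then percent control was estimated visually versus untreated pots.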

[8] = system: ragweed; assay: Test A postemergence; type: in vivo, Ambrosia artemisiifolia; settings: Ambrosia artemisiifolia, post-emergence, 240 h, postemergence, 10 days, 0 to 100 scale (0 no effect, 100 complete control); for pest or weed control at 125 g/ha: 125 g ai/ha, read-out: Ragweed plant response rating; for pest or weed control at 500 g/ha: 500 g ai/ha, visual injury, read-out: Plant response rating, Ragweed
In short: as §1

[9] = system: blackgrass; assay: Test A preemergence; type: in vivo, Alopecurus myosuroides; settings: Alopecurus myosuroides, pre-emergence, 240 h, read-out: Plant response rating, Blackgrass; for pest or weed control at 125 g/ha: 125 g ai/ha, visual injury after 10 days, 0 to 100 scale, 0 is no effect, 100 is complete control; for pest or weed control at 500 g/ha: 500 g ai/ha, 0 to 100 scale (0 no effect, 100 complete control), 10 days
In short: as §1

[10] = system: corn; assay: Test A postemergence; type: in vivo, Zea mays; settings: Zea mays, post-emergence, 240 h, postemergence, 10 days, 0 to 100 scale (0 no effect, 100 complete control); for plant injury at 125 g/ha / Corn plant response rating (crop injury, 0 = no effect, 100 = complete kill) at 125 g/ha: 125 g ai/ha; for plant injury at 125 g/ha: read-out: Corn plant response rating; for Corn plant response rating (crop injury, 0 = no effect, 100 = complete kill) at 500 g/ha: 500 g ai/ha; for Corn plant response rating (crop injury, 0 = no effect, 100 = complete kill) at 500 g/ha / Corn plant response rating (crop injury, 0 = no effect, 100 = complete kill) at 125 g/ha: visual injury
In short: as §1

[11] = system: wheat; assay: Test A preemergence; type: in vivo, Triticum aestivum; settings: Triticum aestivum, pre-emergence, 240 h, read-out: Plant response rating, Wheat; for plant injury at 125 g/ha: 125 g ai/ha, visual injury after 10 days, 0 to 100 scale, 0 is no effect, 100 is complete control; for plant injury at 500 g/ha: 500 g ai/ha, 0 to 100 scale (0 no effect, 100 complete control), 10 days
In short: as §1

[12] = system: kochia; assay: Test A preemergence; type: in vivo, Bassia scoparia; settings: Bassia scoparia, pre-emergence, 240 h, read-out: Plant response rating, Kochia; for pest or weed control at 125 g/ha: 125 g ai/ha, visual injury after 10 days, 0 to 100 scale, 0 is no effect, 100 is complete control; for pest or weed control at 500 g/ha: 500 g ai/ha, 0 to 100 scale (0 no effect, 100 complete control), 10 days
In short: as §1

[13] = system: ducksalad; assay: Test B flooded paddy test; type: in vivo, Heteranthera limosa; settings: Heteranthera limosa, 312 h, 250 g ai/ha, Flood, 13 days, 0 to 100 scale (0 no effect, 100 complete control); read-out: Plant response rating, Ducksalad
In short: as §2

[14] = system: soybean; assay: Test A postemergence; type: in vivo, Glycine max; settings: Glycine max, post-emergence, 240 h, postemergence, 10 days, 0 to 100 scale (0 no effect, 100 complete control); for plant injury at 125 g/ha: 125 g ai/ha, read-out: Soybean plant response rating; for plant injury at 500 g/ha: 500 g ai/ha, visual injury, read-out: Plant response rating, Soybean
In short: as §1

[15] = read-out: Galium plant response rating
[16] = visual injury, read-out: Plant response rating, Galium
[17] = read-out: Goosegrass plant response rating
[18] = visual injury, read-out: Plant response rating, Goosegrass
[19] = read-out: Foxtail, Giant plant response rating
[20] = visual injury, read-out: Plant response rating, Foxtail, Giant

## Cc1ccc(-n2cnc(C3CCC3)n2)cc1C(=O)N1C[C@H](C)Oc2c(Cl)cccc21 [Compound 96, [(2S)-8-Chloro-2,3-dihydro-2-methyl-4H-1,4-benzoxazin-4-yl][5-(3-cyclobutyl-1H-1,2,4-triazol-1-yl)-2-methylphenyl]methanone]
[1]; [15]
  pest or weed control at 125 g/ha: 100%
[1]; [16]
  pest or weed control at 500 g/ha: 100%
[2]
  pest or weed control at 125 g/ha: 100%
  pest or weed control at 500 g/ha: 100%
[3]
  pest or weed control at 125 g/ha: 50%
  pest or weed control at 500 g/ha: 100%
[4]
  pest or weed control at 125 g/ha: 100%
  pest or weed control at 500 g/ha: 100%
[5]; [17]
  pest or weed control at 125 g/ha: 30%
[5]; [18]
  pest or weed control at 500 g/ha: 60%
[6]; [19]
  pest or weed control at 125 g/ha: 90%
[6]; [20]
  pest or weed control at 500 g/ha: 90%
[7]
  pest or weed control at 250 g/ha: 98%
[8]
  pest or weed control at 125 g/ha: 60%
  pest or weed control at 500 g/ha: 70%
[9]
  pest or weed control at 125 g/ha: 40%
  pest or weed control at 500 g/ha: 80%
[10]
  plant injury at 125 g/ha: 10%
  Corn plant response rating (crop injury, 0 = no effect, 100 = complete kill) at 500 g/ha: 60%
[11]
  plant injury at 125 g/ha: 20%
  plant injury at 500 g/ha: 50%
[12]
  pest or weed control at 125 g/ha: 30%
  pest or weed control at 500 g/ha: 100%
[13]
  pest or weed control at 250 g/ha: 65%
[14]
  plant injury at 125 g/ha: 100%
  plant injury at 500 g/ha: 100%

## Cc1ccc(-n2cnc(C(C)C)n2)cc1C(=O)N1C[C@H](C)Oc2c(Cl)cccc21 [Compound 73, [(2S)-8-Chloro-2,3-dihydro-2-methyl-4H-1,4-benzoxazin-4-yl][2-methyl-5-[3-(1-methylethyl)-1H-1,2,4-triazol-1-yl]phenyl]methanone]
[1]; [16]
  pest or weed control at 125 g/ha: 100%
  pest or weed control at 500 g/ha: 100%
[2]
  pest or weed control at 125 g/ha: 100%
  pest or weed control at 500 g/ha: 100%
[3]
  pest or weed control at 500 g/ha: 100%
[4]
  pest or weed control at 125 g/ha: 90%
  pest or weed control at 500 g/ha: 100%
[5]; [18]
  pest or weed control at 125 g/ha: 20%
  pest or weed control at 500 g/ha: 60%
[6]; [20]
  pest or weed control at 125 g/ha: 80%
  pest or weed control at 500 g/ha: 90%
[7]
  pest or weed control at 250 g/ha: 70%
[8]
  pest or weed control at 500 g/ha: 80%
[9]
  pest or weed control at 125 g/ha: 70%
  pest or weed control at 500 g/ha: 90%
[10]
  Corn plant response rating (crop injury, 0 = no effect, 100 = complete kill) at 125 g/ha: 70%
  Corn plant response rating (crop injury, 0 = no effect, 100 = complete kill) at 500 g/ha: 70%
[11]
  plant injury at 125 g/ha: 20%
  plant injury at 500 g/ha: 80%
[12]
  pest or weed control at 125 g/ha: 100%
  pest or weed control at 500 g/ha: 100%
[13]
  pest or weed control at 250 g/ha: 70%
[14]
  plant injury at 500 g/ha: 100%

## CCc1ccc(-n2cnc(C(C)C)n2)cc1C(=O)N1C[C@H](C)Oc2c(Cl)cccc21 [Compound 94, [(2S)-8-Chloro-2,3-dihydro-2-methyl-4H-1,4-benzoxazin-4-yl][2-ethyl-5-[3-(1-methylethyl)-1H-1,2,4-triazol-1-yl]phenyl]methanone]
[1]; [15]
  pest or weed control at 125 g/ha: 100%
[1]; [16]
  pest or weed control at 500 g/ha: 100%
[2]
  pest or weed control at 125 g/ha: 100%
  pest or weed control at 500 g/ha: 100%
[3]
  pest or weed control at 125 g/ha: 50%
  pest or weed control at 500 g/ha: 90%
[4]
  pest or weed control at 125 g/ha: 90%
  pest or weed control at 500 g/ha: 100%
[5]; [17]
  pest or weed control at 125 g/ha: 60%
[5]; [18]
  pest or weed control at 500 g/ha: 90%
[6]; [19]
  pest or weed control at 125 g/ha: 90%
[6]; [20]
  pest or weed control at 500 g/ha: 90%
[7]
  pest or weed control at 250 g/ha: 98%
[8]
  pest or weed control at 125 g/ha: 50%
  pest or weed control at 500 g/ha: 50%
[9]
  pest or weed control at 125 g/ha: 90%
  pest or weed control at 500 g/ha: 90%
[10]
  plant injury at 125 g/ha: 80%
  Corn plant response rating (crop injury, 0 = no effect, 100 = complete kill) at 500 g/ha: 90%
[11]
  plant injury at 125 g/ha: 50%
  plant injury at 500 g/ha: 90%
[12]
  pest or weed control at 125 g/ha: 90%
  pest or weed control at 500 g/ha: 100%
[13]
  pest or weed control at 250 g/ha: 70%
[14]
  plant injury at 125 g/ha: 100%
  plant injury at 500 g/ha: 100%

## Cc1ncn(-c2ccc(C)c(C(=O)N3C[C@H](C)Oc4c(Cl)cccc43)c2)n1 (single isomer, unassigned) [Compound 74]
[1]; [16]
  pest or weed control at 125 g/ha: 100%
  pest or weed control at 500 g/ha: 100%
[2]
  pest or weed control at 125 g/ha: 100%
  pest or weed control at 500 g/ha: 100%
[3]
  pest or weed control at 500 g/ha: 100%
[4]
  pest or weed control at 125 g/ha: 100%
  pest or weed control at 500 g/ha: 100%
[5]; [18]
  pest or weed control at 125 g/ha: 0%
  pest or weed control at 500 g/ha: 0%
[6]; [20]
  pest or weed control at 125 g/ha: 90%
  pest or weed control at 500 g/ha: 90%
[7]
  pest or weed control at 250 g/ha: 95%
[8]
  pest or weed control at 500 g/ha: 50%
[9]
  pest or weed control at 125 g/ha: 70%
  pest or weed control at 500 g/ha: 90%
[10]
  Corn plant response rating (crop injury, 0 = no effect, 100 = complete kill) at 125 g/ha: 60%
  Corn plant response rating (crop injury, 0 = no effect, 100 = complete kill) at 500 g/ha: 90%
[11]
  plant injury at 125 g/ha: 20%
  plant injury at 500 g/ha: 90%
[12]
  pest or weed control at 125 g/ha: 40%
  pest or weed control at 500 g/ha: 100%
[13]
  pest or weed control at 250 g/ha: 60%
[14]
  plant injury at 500 g/ha: 100%
